Source: article doi:10.1101/2020.04.16.044321v1 (biorxiv, 2020)

Molecular target: hemopexin (Homo sapiens, UniProt P02790)
Assay: biochemical

Chain of hemopexin (P02790 24-462): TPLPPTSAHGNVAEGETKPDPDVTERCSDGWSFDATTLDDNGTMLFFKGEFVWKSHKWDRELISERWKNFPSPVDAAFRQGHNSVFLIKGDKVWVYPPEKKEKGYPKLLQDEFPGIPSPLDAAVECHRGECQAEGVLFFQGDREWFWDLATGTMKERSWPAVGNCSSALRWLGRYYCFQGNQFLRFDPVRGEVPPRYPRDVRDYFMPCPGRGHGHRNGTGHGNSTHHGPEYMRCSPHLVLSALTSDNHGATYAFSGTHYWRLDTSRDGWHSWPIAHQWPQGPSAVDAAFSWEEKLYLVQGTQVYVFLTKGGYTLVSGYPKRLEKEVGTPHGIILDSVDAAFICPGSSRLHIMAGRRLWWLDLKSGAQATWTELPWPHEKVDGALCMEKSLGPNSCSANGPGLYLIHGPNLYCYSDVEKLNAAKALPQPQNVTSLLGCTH

Kd: 0.32 ± 0.04 nM
SMILES: C=CC1=C(C)C2=Cc3c(C=C)c(C)c4[n]3[Fe+][n]3c(c(C)c(CCC(=O)O)c3=CC3=NC(=C4)C(C)=C3CCC(=O)O)=CC1=N2 [heme]
